Our source for the Emax and EC50 values is patent US20230265151A1, “GIP/GLP1 CO-AGONIST COMPOUNDS” (priority 2020, published 2023).

Like-named read-outs stand apart in the source and are kept apart here. Some results are limits rather than exact numbers.

For orientation: Emax means the greatest response seen or fitted, relative to the assay's reference. The term EC50 denotes the concentration at which the effect is half-maximal.

What all share (assay type): cell-based
One assay concerns the target hGLP-1R (Homo sapiens, UniProt P43220). Description: Functional cAMP formation (HTRF) in HEK-293 clonal cells expressing hGLP-1R, 0.1% bovine casein, without or with 1.0% human serum albumin. Also noted: expressed in transfected cells. As to conditions: for EC50: cAMP. Summed up:
(§1)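 Cells were stimulated with peptide for 30 min at 37° C, then lysed in buffer carrying cAMP-d2 and anti-cAMP Eu3+-cryptate for a competitive HTRF read after at least 60 min at room temperature. The 665/620 nm ratio was converted to nM cAMP against a standard curve.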
Background: Changes in cAMP serve as a functional read-out for many G protein-coupled receptors.

The next assay addresses T1, hGCGR (Homo sapiens, UniProt P47871).
T1 construct: expressed in transfected cells
Description: Functional cAMP formation (HTRF) in HEK-293 clonal cells expressing hGCGR, 0.1% bovine casein, without or with 1.0% human serum albumin. In a few lines: as §1

The next assay deals with T2, hGIPR (Homo sapiens, UniProt P48546).
T2 construct: expressed in transfected cells
T2 sequence (P48546 22-466): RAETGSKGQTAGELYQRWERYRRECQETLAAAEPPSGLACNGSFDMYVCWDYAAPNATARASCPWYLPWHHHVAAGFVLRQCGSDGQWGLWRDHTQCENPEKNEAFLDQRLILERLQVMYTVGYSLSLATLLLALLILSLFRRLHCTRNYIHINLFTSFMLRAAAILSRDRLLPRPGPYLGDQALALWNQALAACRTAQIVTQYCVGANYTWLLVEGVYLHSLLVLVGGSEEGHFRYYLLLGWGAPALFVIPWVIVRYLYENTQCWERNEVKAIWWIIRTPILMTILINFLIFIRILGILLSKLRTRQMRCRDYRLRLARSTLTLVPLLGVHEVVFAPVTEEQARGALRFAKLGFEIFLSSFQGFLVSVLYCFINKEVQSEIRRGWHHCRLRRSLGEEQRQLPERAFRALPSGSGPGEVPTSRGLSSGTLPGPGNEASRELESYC
Description: Functional cAMP formation (HTRF) in HEK-293 clonal cells expressing hGIPR, 0.1% bovine casein, without or with 1.0% human serum albumin. Summed up: as §1

T1 sequence (P47871 26-477): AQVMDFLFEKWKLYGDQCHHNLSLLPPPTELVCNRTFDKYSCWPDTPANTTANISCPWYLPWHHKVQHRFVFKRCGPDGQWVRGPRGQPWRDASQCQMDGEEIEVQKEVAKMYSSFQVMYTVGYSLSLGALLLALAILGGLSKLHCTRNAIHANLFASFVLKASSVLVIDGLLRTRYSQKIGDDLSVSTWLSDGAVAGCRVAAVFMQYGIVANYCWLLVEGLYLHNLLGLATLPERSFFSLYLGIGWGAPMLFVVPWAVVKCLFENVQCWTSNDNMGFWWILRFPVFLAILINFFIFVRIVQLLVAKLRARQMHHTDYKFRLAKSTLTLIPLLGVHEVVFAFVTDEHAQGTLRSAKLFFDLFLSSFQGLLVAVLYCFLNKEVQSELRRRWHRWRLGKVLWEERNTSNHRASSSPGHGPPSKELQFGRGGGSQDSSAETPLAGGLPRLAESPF
hGLP-1R, sequence (P43220 24-463): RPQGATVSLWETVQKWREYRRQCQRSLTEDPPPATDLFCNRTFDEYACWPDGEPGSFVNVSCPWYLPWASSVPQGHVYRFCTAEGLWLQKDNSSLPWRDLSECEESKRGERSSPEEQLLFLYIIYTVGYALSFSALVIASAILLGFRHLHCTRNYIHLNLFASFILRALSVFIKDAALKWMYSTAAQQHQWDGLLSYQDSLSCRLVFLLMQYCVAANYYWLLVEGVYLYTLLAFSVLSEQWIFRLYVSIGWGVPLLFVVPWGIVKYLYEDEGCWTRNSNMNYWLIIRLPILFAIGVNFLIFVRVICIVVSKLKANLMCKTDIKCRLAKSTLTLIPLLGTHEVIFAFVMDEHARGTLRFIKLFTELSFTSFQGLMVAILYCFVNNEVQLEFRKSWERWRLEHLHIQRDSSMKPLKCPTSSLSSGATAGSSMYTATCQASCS

In the case of `CC[C@H](C)[C@H](NC(=O)[C@H](CC(C)C)NC(=O)[C@](C)(Cc1ccc(O)cc1)NC(=O)[C@H](CCCCNC(=O)COCCOCCNC(=O)COCCOCCNC(=O)CC[C@H](NC(=O)CCCCCCCCCCCCC(=O)O)C(=O)O)NC(=O)[C@@H](NC(=O)[C@H](Cc1ccccc1)NC(=O)[C@H](Cc1ccncc1)NC(=O)C(C)(C)NC(=O)[C@H](CCC(N)=O)NC(=O)[C@H](C)NC(=O)[C@H](CCC(N)=O)NC(=O)[C@H](CCCN)NC(=O)[C@H](CC(=O)O)NC(=O)[C@H](CC(C)C)NC(=O)[C@](C)(CC(C)C)NC(=O)[C@@H](NC(=O)C(C)(C)NC(=O)[C@H](Cc1ccncc1)NC(=O)[C@H](CC(=O)O)NC(=O)[C@H](CO)NC(=O)[C@@H](NC(=O)[C@](C)(Cc1ccccc1F)NC(=O)[C@@H](NC(=O)CNC(=O)[C@H](CCC(=O)O)NC(=O)C(C)(C)NC(=O)[C@@H](N)Cc1ccc(O)cc1)[C@@H](C)O)[C@@H](C)O)[C@@H](C)CC)[C@@H](C)CC)C(=O)N[C@@H](CCCCNC(=O)COCCOCCNC(=O)COCCOCCNC(=O)CC[C@H](NC(=O)CCCCCCCCCCCCC(=O)O)C(=O)O)C(=O)NCC(=O)NCC(=O)N1CCC[C@H]1C(=O)N[C@@H](CO)C(=O)N[C@@H](CO)C(=O)NCC(=O)N[C@@H](C)C(=O)N1CCC[C@H]1C(=O)N1CCC[C@H]1C(=O)N1CCC[C@H]1C(=O)N[C@@H](CO)C(N)=O` [Example 444], the maximal response (Emax) on hGLP-1R (HEK293, cAMP, 37° C., 0.1% bovine casein and 1.0% human serum albumin, percent of maximal response to GLP-1(7-36)NH2, read-out: hGLP-1R Emax, % ± SEM) came to 98.8%; at hGIPR (HEK293, cAMP, 37° C., 0.1% bovine casein and 1.0% human serum albumin, percent of maximal response to GIP(1-42)NH2, read-out: hGIPR Emax, % ± SEM) it was 83.6%; on hGIPR (HEK293, cAMP, 37° C., 0.1% bovine casein, percent of maximal response to GIP(1-42)NH2, arithmetic mean, read-out: hGIPR Emax, % ± SEM), 93.6%. Moreover, the EC50 on hGLP-1R (37° C., 0.1% bovine casein (no human serum albumin), geometric mean, read-out: hGLP-1R EC50, nM (SEM, n)) is 0.289 nM; on hGLP-1R (37° C., 0.1% bovine casein and 1.0% human serum albumin, geometric mean (SEM, n), read-out: hGLP-1R EC50, nM (SEM, n)), 7.51 nM; on hGCGR (cAMP, 37° C., 0.1% bovine casein (no human serum albumin), geometric mean, read-out: hGCGR EC50, nM (SEM, n)), > 9950 nM; on hGCGR (cAMP, 37° C., 0.1% bovine casein and 1.0% human serum albumin, geometric mean (SEM, n), read-out: hGCGR EC50, nM (SEM, n)), > 9950 nM; on hGIPR (cAMP, 37° C., 0.1% bovine casein (no human serum albumin), geometric mean, read-out: hGIPR EC50, nM (SEM, n)) it was 0.0157 nM.
As for `CC[C@H](C)[C@H](NC(=O)[C@H](CC(C)C)NC(=O)[C@](C)(Cc1ccc(O)cc1)NC(=O)[C@@H](CCC(=O)O)NC(=O)[C@@H](NC(=O)[C@H](Cc1ccccc1)NC(=O)[C@H](CCCCNC(=O)COCCOCCNC(=O)COCCOCCNC(=O)CCCCCCCCCOc1ccc(C(=O)O)cc1)NC(=O)C(C)(C)NC(=O)[C@H](CCC(N)=O)NC(=O)[C@H](C)NC(=O)[C@H](CCCCNC(=O)COCCOCCNC(=O)COCCOCCNC(=O)CCCCCCCCCOc1ccc(C(=O)O)cc1)NC(=O)[C@H](CCCN)NC(=O)[C@H](CC(=O)O)NC(=O)[C@H](CC(C)C)NC(=O)[C@](C)(CC(C)C)NC(=O)[C@@H](NC(=O)C(C)(C)NC(=O)[C@@H](NC(=O)[C@H](CC(=O)O)NC(=O)[C@H](CO)NC(=O)[C@@H](NC(=O)[C@](C)(Cc1ccccc1F)NC(=O)[C@@H](NC(=O)CNC(=O)[C@H](CCC(=O)O)NC(=O)C(C)(C)NC(=O)[C@@H](N)Cc1ccc(O)cc1)[C@@H](C)O)[C@@H](C)O)C(C)C)[C@@H](C)CC)[C@@H](C)CC)C(=O)N[C@@H](CCC(=O)O)C(=O)NCC(=O)NCC(=O)N1CCC[C@H]1C(=O)N[C@@H](CO)C(=O)N[C@@H](CO)C(=O)NCC(=O)N[C@@H](C)C(=O)N1CCC[C@H]1C(=O)N1CCC[C@H]1C(=O)N1CCC[C@H]1C(=O)N[C@@H](CO)C(N)=O` [Example 394], the maximum response (Emax) came out at 96.8% at hGLP-1R (HEK293, read-out: hGLP-1R Emax, % ± SEM, cAMP, 37° C., 0.1% bovine casein and 1.0% human serum albumin, percent of maximal response to GLP-1(7-36)NH2); 84.6% on hGIPR (HEK293, read-out: hGIPR Emax, % ± SEM, cAMP, 37° C., 0.1% bovine casein and 1.0% human serum albumin, percent of maximal response to GIP(1-42)NH2); 97.7% at hGIPR (HEK293, read-out: hGIPR Emax, % ± SEM, cAMP, 37° C., 0.1% bovine casein, percent of maximal response to GIP(1-42)NH2, arithmetic mean). In addition, the EC50 at hGLP-1R (hGLP-1R EC50, nM (SEM, n), 37° C., 0.1% bovine casein (no human serum albumin), geometric mean) is 0.223 nM; at hGLP-1R (hGLP-1R EC50, nM (SEM, n), 37° C., 0.1% bovine casein and 1.0% human serum albumin, geometric mean (SEM, n)), 5.83 nM; at hGCGR (hGCGR EC50, nM (SEM, n), cAMP, 37° C., 0.1% bovine casein (no human serum albumin), geometric mean) it was > 9950 nM; on hGCGR (hGCGR EC50, nM (SEM, n), cAMP, 37° C., 0.1% bovine casein and 1.0% human serum albumin, geometric mean (SEM, n)), > 9950 nM; on hGIPR (hGIPR EC50, nM (SEM, n), cAMP, 37° C., 0.1% bovine casein (no human serum albumin), geometric mean), 0.0179 nM; at hGIPR (hGIPR EC50, nM (SEM, n), cAMP, 37° C., 0.1% bovine casein and 1.0% human serum albumin, geometric mean (SEM, n)) it was 1.38 nM.
Take `CC[C@H](C)[C@H](NC(=O)[C@H](CC(C)C)NC(=O)[C@](C)(Cc1ccc(O)cc1)NC(=O)[C@@H](CCC(=O)O)NC(=O)[C@@H](NC(=O)[C@H](Cc1ccccc1)NC(=O)[C@H](CCC(=O)O)NC(=O)C(C)(C)NC(=O)[C@H](CCC(N)=O)NC(=O)[C@H](C)NC(=O)[C@H](CCCCNC(=O)COCCOCCNC(=O)COCCOCCNC(=O)CC[C@H](NC(=O)CCCCCCCCCCCCC(=O)O)C(=O)O)NC(=O)[C@H](CCCN)NC(=O)[C@H](CC(=O)O)NC(=O)[C@H](CC(C)C)NC(=O)[C@](C)(CC(C)C)NC(=O)[C@@H](NC(=O)C1(NC(=O)[C@H](Cc2ccncc2)NC(=O)[C@H](CC(=O)O)NC(=O)[C@H](CO)NC(=O)[C@@H](NC(=O)[C@](C)(Cc2ccccc2F)NC(=O)[C@@H](NC(=O)CNC(=O)[C@H](CCC(=O)O)NC(=O)C(C)(C)NC(=O)[C@@H](N)Cc2ccc(O)cc2)[C@@H](C)O)[C@@H](C)O)CCCC1)[C@@H](C)CC)[C@@H](C)CC)C(=O)N[C@@H](CCC(=O)O)C(=O)NCC(=O)NCC(=O)N[C@@H](CCCCNC(=O)COCCOCCNC(=O)COCCOCCNC(=O)CC[C@H](NC(=O)CCCCCCCCCCCCC(=O)O)C(=O)O)C(=O)N[C@@H](CO)C(=O)N[C@@H](CO)C(=O)NCC(=O)N[C@@H](C)C(=O)N1CCC[C@H]1C(=O)N1CCC[C@H]1C(=O)N1CCC[C@H]1C(=O)N[C@@H](CO)C(N)=O` [Example 211]: the maximal response (Emax) was found to be 99% at hGLP-1R (HEK293, 0.1% bovine casein and 1.0% human serum albumin, 37° C., percent of maximal response to GLP-1(7-36)NH2, read-out: hGLP-1R Emax, % ± SEM); 93.1% at hGLP-1R (HEK293, percent of maximal response to GLP-1(7-36)NH2, 37° C., 0.1% bovine casein, arithmetic mean, read-out: hGLP-1R Emax, % ± SEM); 64.5% at hGIPR (HEK293, 0.1% bovine casein and 1.0% human serum albumin, 37° C., percent of maximal response to GIP(1-42)NH2, read-out: hGIPR Emax, % ± SEM); 91.6% at hGIPR (HEK293, percent of maximal response to GIP(1-42)NH2, 37° C., 0.1% bovine casein, arithmetic mean, read-out: hGIPR Emax, % ± SEM). Moreover, the half-maximal effective concentration (EC50) on hGCGR (0.1% bovine casein and 1.0% human serum albumin, 37° C., geometric mean, read-out: hGCGR EC50, nM (SEM, n)) was > 9950 nM; on hGCGR (cAMP, incubated at 37° C., 0.1% bovine casein (no human serum albumin), geometric mean, read-out: hGCGR EC50, nM (SEM, n)) it was > 9950 nM; on hGIPR (0.1% bovine casein and 1.0% human serum albumin, 37° C., geometric mean, read-out: hGIPR EC50, nM (SEM, n)) it was 2.16 nM.
